Assay results published in patent publication US10143747B2, “Breast cancer therapeutics” (IMBA—INSTITUT FÜR MOLEKULARE BIOTECHNOLOGIE GMBH, priority 2010, dated 2018).

B1: RANKL: recombinant RANKL protein, ligand of RANK, used as stimulus (1 μg/ml or 1 μg i.p.) (protein, UniProt O35235 139-316, looked up)
Tumor necrosis factor ligand …: FSGAPAMMEGSWLDVAQRGKPEAQPFAHLTINAASIPSGSHKVTLSSWYHDRGWAKISNMTLSNGKLRVNQDGFYYLYANICFRHHETSGSVPTDYLQLMVYVVKTSIKIPSSHNLMKGGSTKNWSGNSEFHFYSINVGGFFKLRAGEEISIQVSNPSLLDPDQDATYFGAFKVQDID

How the values were obtained:
RANKL = RANKL protein in mammary gland / isolated mammary epithelial cells (immunostaining, Western blot) after MPA implantation; type: in vivo, mouse
Experimental: a,b, Induction of RANKL expression by the progesterone-derivative MPA. Nulliparous wild type females were s.c. implanted with slow-release MPA pellets or treated with surgery sham. a, RANKL mRNA was determined in purified mammary epithelial cells by qRT-PCR three days after implantation. Data are shown as fold change compared to sham treatment (+/−sem) (n=3). b, In situ […] immunostaining of progesterone receptor (PR, red) and RANKL (green) in mammary epithelial cells after 3d MPA treatment. c, Induction of soluble RANKL protein assayed on isolated mammary gland epithelial cells from control, but not in prolactin receptor mutant (PRL-R KO) females on day 3 after s.c. MPA implantation. Mammary glands from sham operated control litter-mates and PRL-R KO females are shown as controls. d, Epithelial proliferation in mammary glands of control littermates and RANK^Δmam females 3 days after sham treatment and MPA implantation. Proliferation was determined by in situ Ki67 immunostaining. e,f, Marked increase of the stem cell-enriched CD24^+CD49^high population (MaSC) in MPA-treated mammary glands in control but not in RANK^Δmam mammary glands. e, Representative FACS profiles showing CD24 and CD49 expression of lineage negative (CD31^− (endothelial cells) CD45^− (hematopoietic cells) […] (erythroid cells)) of mammary MaSCs from MPA- or sham-treated 8-week old virgin females. f, Quantification of MaSC-enriched CD24^+CD49^high population from mammary glands of MPA- or sham-treated virgin RANK^Δmam and littermate control females. For all MaSCs experiments mice were treated with MPA for 3 days. n=4 per group+/−sem. *P<0.05; ***P<0.001 (Student's t-test).
a-d, Induction of RANKL expression by the progesterone-derivative MPA. Nulliparous wild type females were s.c. implanted with slow-release MPA pellets or treated with surgery sham. a, Expression of transmembrane (tm) and soluble (s) RANKL protein was assayed on isolated mammary gland epithelial cells by Western blot 3 and 6 days after MPA pellet implantation or sham surgery. β-actin is shown as a loading control. Recombinant murine sRANKL and recombinant human tmRANKL protein are shown for molecular size comparison in the right panels. […] Numbers indicate amino acid residues. c, Expression of total (t) RANKL, RANKL1, RANKL2, and RANKL3 mRNA in purified mammary epithelial cells after three days MPA treatment. β-actin is shown as a control. d, Representative agarose gel of RT-PCR products as in c. e, mRNA expression of various proteases known to shed RANKL from the surface of cells. mRNA was determined in purified mammary epithelial cells by qRT-PCR three days after MPA implantation. […]

[1] = test system: human breast cancer cells as well as cultured MECs; assay: RANKL mRNA expression in human breast cancer cells and cultured MECs after MPA stimulation in vitro; type: cell-based; conditions: MPA 0.1 μM
Experimental: a, Analysis of RANKL mRNA expression in human breast cancer cells as well as cultured MECs after MPA stimulation (0.1 μM). Expression was determined by qRT-PCR in unstimulated cells or cells stimulated with MPA for the indicated time points. […] Data were obtained by qRT-PCR and are shown as fold change compared to MCF10A (b) and purified primary MECs (c) (+/−sem) (n=3).
MPA (medroxyprogesterone acetate, a representive progestin) pellets were implanted into female mice and RANKL expression was assayed. […] Since MPA can induce transcription of prolactin and the prolactin receptor in breast cancer cells and prolactin can directly induce RANKL via Jak2/Stat5 signaling, it was tested whether MPA induces RANKL in the mammary gland of prolactin receptor knock-out mice.

[2] = test system: SKBR3 human breast cancer cells; assay: DNA damage responses (cell cycle arrest, apoptosis) in SKBR3 cells; type: cell-based; conditions: RANKL 1 μg/ml
Experimental: a, Western Blot analysis for γH2AX, phosphorylated (P) Chk1, total Chk1, p53 and β-actin in isolated primary mouse mammary gland epithelial cells in response to γ-irradiation (2 Gray) in the presence (1 μg/ml) or absence of RANKL stimulation. b,c, FACS analysis of propidium iodide (PI) stained b, mammary epithelial cells and c, SKBR3 human breast cancer cells after γ-irradiation (2 Gray) in the absence or presence (1 μg/ml) of RANKL. Data are representative of at least 3 experiments. Apoptotic cells with a DNA content <2n appear in the sub-G1 region. Percent of cells in sub-G1 (M1), G1-phase (M2), S/G2/M-phase (M3) as well as polyploid cells with a DNA content >4n are given for the indicated time points.
a,b, FACS analysis of a, mammary epithelial cells and b, SKBR3 human breast cancer cells incubated with the genotoxic agent doxorubicin (Dox, 1 μM) in the presence (1 μg/ml) or absence of RANKL. Data are representative of at least 3 experiments. Percent of cells in sub-G1 (M1), G1-phase (M2), S/G2/M-phase (M3) as well as polyploid cells with a DNA content >4n are given for 24 and 36 hours after doxorubicin treatment. c, mRNA expression of pro-apoptotic genes Bim, Puma, and Noxa 6 hours after γ-irradiation (2 Gray) in the presence (1 μg/ml) or absence of RANKL stimulation. Data are shown as fold change compared to control (+/−sem). n=3). *P<0.05; **P<0.005 (Student's t-test).
For measurement of cell cycle arrest and apoptosis primary mouse mammary epithelial cells and SKBR3 human breast cancer cells were seeded at a cell-density of 100000 cells/well in a 6-well plate and allowed to grow for 24 hours. Cells where then treated with doxorubicin (1 μM) or γ-irradiation (2 Gray) in the absence or presence of recombinant RANKL (1 μg/ml). Cell cycle arrest and numbers of dead cells were determined using propidium iodine staining. To determine in vivo mammary gland epithelial cell death, control and RANK^Δmam littermate females were γ-irradiated with a total dose of 5 Gray (Gy). Six hours later, mammary glands were isolated and immunostained for active Caspase 3 (Cell Signaling) indicative of apoptosis.

| Molecule | 19 kDa soluble form of RANKL, Western blotting of isolated mammary epithelial cells (RANKL; 3 and 6 days after MPA pellet implantation) | RANKL protein in the mammary gland, immunohistochemistry (RANKL; 3 d MPA treatment) | RANKL protein production (RANKL; female control mice, day 3 after s.c. MPA implantation) | RANKL protein induction (RANKL; prolactin receptor mutants (PRL-R KO), day 3 after s.c. MPA implantation) | RANKL mRNA induction in SKBR3 cells [1] | early cell cycle arrest after DNA damage ([2]; doxorubicin 1 μM) | protection from cell death ([2]; doxorubicin 1 μM) | early cell cycle arrest after DNA damage ([2]; γ-irradiation 2 Gray) | protection from cell death ([2]; γ-irradiation 2 Gray) |
| --- | --- | --- | --- | --- | --- | --- | --- | --- | --- |
| CC(=O)O[C@]1(C(C)=O)CC[C@H]2[C@@H]3C[C@H](C)C4=CC(=O)CC[C@]4(C)[C@H]3CC[C@@]21C [MPA, medroxyprogesterone acetate] | induction of the 19 kDa soluble form of RANKL | induction of RANKL protein in the mammary gland | triggers substantial production of RANKL protein | failed to detect RANKL induction | only slightly increased |  |  |  |  |
| B1 |  |  |  |  |  | did not alter the early cell cycle arrest | marked protection from cell death | did not alter the early cell cycle arrest | marked protection from cell death |
